Each block holds one compound with its values, some of them ahead of it. The source made the active and inactive calls. The rule behind the calls is not given here.
Legend:
[1] = Inhibition of HDAC in human HeLa cell extracts assessed as inhibition of substrate deacetylation using Boc-Lys (q-Ac)-AMC as substrate incubated for 10 mins followed by substrate addition and measured after 30 mins by fluorescence based assay; assay type: tissue-based
MDA-MB-231 [2] = test: Induction of apoptosis in human MDA-MB-231 cells assessed as necrotic cells at 10 uM incubated for 72 hrs by annexinV-FITC and PI staining based flow cytometry analysis (reference value: 0.330 %); assay type: functional
MDA-MB-231 [3] = test: Induction of apoptosis in human MDA-MB-231 cells assessed as early apoptotic cells at 10 uM incubated for 72 hrs by annexinV-FITC and PI staining based flow cytometry analysis (reference value: 5.57 %); assay type: functional
4T1 [4] = test: Induction of apoptosis in mouse 4T1 cells assessed as late apoptotic cells at 10 uM incubated for 72 hrs by annexinV-FITC and PI staining based flow cytometry analysis (reference value: 2.24 %); assay type: functional
4T1 [5] = test: Induction of apoptosis in mouse 4T1 cells assessed as early apoptotic cells at 10 uM incubated for 72 hrs by annexinV-FITC and PI staining based flow cytometry analysis (reference value: 1.65 %); assay type: functional
4T1 [6] = test: Induction of apoptosis in mouse 4T1 cells assessed as necrotic cells at 10 uM incubated for 72 hrs by annexinV-FITC and PI staining based flow cytometry analysis (reference value: 5.00 %); assay type: functional
MDA-MB-231 [7] = test: Induction of apoptosis in human MDA-MB-231 cells assessed as late apoptotic cells at 10 uM incubated for 72 hrs by annexinV-FITC and PI staining based flow cytometry analysis (reference value: 3.79 %); assay type: functional
4T1 [8] = test: Induction of apoptosis in mouse 4T1 cells assessed as viable cells at 10 uM incubated for 72 hrs by annexinV-FITC and PI staining based flow cytometry analysis (reference value: 91.1 %); assay type: functional; conditions: read-out: Activity
MDA-MB-231 [9] = test: Induction of apoptosis in human MDA-MB-231 cells assessed as viable cells at 10 uM incubated for 72 hrs by annexinV-FITC and PI staining based flow cytometry analysis (reference value: 90.3 %); assay type: functional; conditions: read-out: Activity
MDA-MB-231 [10] = test: Induction of cell cycle arrest in human MDA-MB-231 cells assessed as G0/G1 phase accumulation at 2 uM incubated for 24 hrs by PI staining based flow cytometry analysis (reference value: 29.10 %); assay type: functional
MDA-MB-231 [11] = test: Induction of apoptosis in human MDA-MB-231 cells assessed as necrotic cells at 5 uM incubated for 72 hrs by annexinV-FITC and PI staining based flow cytometry analysis (reference value: 0.330 %); assay type: functional
4T1 [12] = test: Induction of apoptosis in mouse 4T1 cells assessed as necrotic cells at 5 uM incubated for 72 hrs by annexinV-FITC and PI staining based flow cytometry analysis (reference value: 5.00 %); assay type: functional
[13] = Genotoxicity in Salmonella typhimurium WP2 uvrA (pKM 101) by Ames test; assay type: toxicity; conditions: salmonella enterica subsp. enterica serovar typhimurium
[14] = Genotoxicity in Salmonella typhimurium TA98 by Ames test; assay type: toxicity; conditions: salmonella enterica subsp. enterica serovar typhimurium
MDA-MB-231 [15] = test: Induction of apoptosis in human MDA-MB-231 cells xenografted in BALB/c mouse assessed as increase in caspase-3 cleavage by immunohistochemistry method; assay type: functional, cell-based
4T1 [16] = test: Induction of apoptosis in mouse 4T1 cells assessed as late apoptotic cells at 5 uM incubated for 72 hrs by annexinV-FITC and PI staining based flow cytometry analysis (reference value: 2.24 %); assay type: functional
T47D = test: Cytotoxicity against human T47D cells assessed as reduction in cell viability incubated for 48 hrs by MTT assay; assay type: functional, cell-based
MDA-MB-231 [17] = test: Induction of cell cycle arrest in human MDA-MB-231 cells assessed as S phase accumulation at 2 uM incubated for 24 hrs by PI staining based flow cytometry analysis (reference value: 43.82 %); assay type: functional
MDA-MB-231 [18] = test: Induction of cell cycle arrest in human MDA-MB-231 cells assessed as G2/M phase accumulation at 2 uM incubated for 24 hrs PI staining based by flow cytometry analysis (reference value: 27.08 %); assay type: functional
MDA-MB-231 [19] = test: Induction of apoptosis in human MDA-MB-231 cells assessed as viable cells at 5 uM incubated for 72 hrs by annexinV-FITC and PI staining based flow cytometry analysis (reference value: 90.3 %); assay type: functional; conditions: read-out: Activity
[20] = Genotoxicity in Salmonella typhimurium TA1537 by Ames test; assay type: toxicity; conditions: salmonella enterica subsp. enterica serovar typhimurium
[21] = Genotoxicity in Salmonella typhimurium TA100 by Ames test; assay type: toxicity; conditions: salmonella enterica subsp. enterica serovar typhimurium
4T1 [22] = test: Induction of cell cycle arrest in mouse 4T1 cells assessed as S phase accumulation at 2 uM incubated for 24 hrs by PI staining based flow cytometry analysis (reference value: 19.43 %); assay type: functional
[23] = target: Signal transducer and activator of transcription 3 (Homo sapiens) (UniProt P40763); test: Inhibition of STAT3 in human MDA-MB-231 cells assessed as reduction in STAT-3 phosphorylation at 2.5 to 40 uM incubated for 8 hrs by Western blot analysis; assay type: cell-based; conditions: dose 2.5-40 µM
Chain of Signal transducer and activator of transcription 3 (Homo sapiens) (P40763 whole entry): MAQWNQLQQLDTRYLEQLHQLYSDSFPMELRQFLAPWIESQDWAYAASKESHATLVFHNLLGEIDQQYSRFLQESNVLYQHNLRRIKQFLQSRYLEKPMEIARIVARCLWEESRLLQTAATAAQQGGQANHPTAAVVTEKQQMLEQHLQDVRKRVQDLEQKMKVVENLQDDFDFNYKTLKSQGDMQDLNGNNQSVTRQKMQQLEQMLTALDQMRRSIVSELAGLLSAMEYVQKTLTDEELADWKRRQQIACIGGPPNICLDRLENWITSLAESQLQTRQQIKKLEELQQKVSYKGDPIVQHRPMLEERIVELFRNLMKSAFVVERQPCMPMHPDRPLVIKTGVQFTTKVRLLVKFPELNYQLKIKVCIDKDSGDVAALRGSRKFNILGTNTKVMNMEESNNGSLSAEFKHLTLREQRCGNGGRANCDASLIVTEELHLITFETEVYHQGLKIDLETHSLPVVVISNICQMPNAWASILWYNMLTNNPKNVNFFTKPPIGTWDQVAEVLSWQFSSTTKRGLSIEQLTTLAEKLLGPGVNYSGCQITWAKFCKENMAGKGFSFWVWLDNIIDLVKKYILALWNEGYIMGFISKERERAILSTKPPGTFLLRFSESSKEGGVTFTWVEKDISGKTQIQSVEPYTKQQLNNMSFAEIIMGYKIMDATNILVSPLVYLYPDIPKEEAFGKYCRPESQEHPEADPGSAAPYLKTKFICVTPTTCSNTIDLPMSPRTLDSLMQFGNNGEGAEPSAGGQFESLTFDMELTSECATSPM

[24] = Genotoxicity in Salmonella typhimurium TA1535 by Ames test; assay type: toxicity; conditions: salmonella enterica subsp. enterica serovar typhimurium
[25] = Genotoxicity in Salmonella typhimurium TA97a by Ames test; assay type: toxicity; conditions: salmonella enterica subsp. enterica serovar typhimurium
MDA-MB-231 [26] = test: Induction of apoptosis in human MDA-MB-231 cells assessed as late apoptotic cells at 5 uM incubated for 72 hrs by annexinV-FITC and PI staining based flow cytometry analysis (reference value: 3.79 %); assay type: functional
MDA-MB-231 [27] = test: Induction of apoptosis in human MDA-MB-231 cells assessed as early apoptotic cells at 5 uM incubated for 72 hrs by annexinV-FITC and PI staining based flow cytometry analysis (reference value: 5.57 %); assay type: functional
HepG2 = test: Cytotoxicity against human HepG2 cells assessed as reduction in cell viability incubated for 48 hrs by MTT assay; assay type: functional, cell-based; conditions: HepG2, 48 h
4T1 [28] = test: Induction of cell cycle arrest in mouse 4T1 cells assessed as G0/G1 phase accumulation at 2 uM incubated for 24 hrs by PI staining based flow cytometry analysis (reference value: 42.06 %); assay type: functional
4T1 [29] = test: Induction of apoptosis in mouse 4T1 cells assessed as viable cells at 5 uM incubated for 72 hrs by annexinV-FITC and PI staining based flow cytometry analysis (reference value: 91.1 %); assay type: functional; conditions: read-out: Activity
4T1 [30] = test: Induction of apoptosis in mouse 4T1 cells assessed as early apoptotic cells at 5 uM incubated for 72 hrs by annexinV-FITC and PI staining based flow cytometry analysis (reference value: 1.65 %); assay type: functional
4T1 [31] = test: Induction of apoptosis in mouse 4T1 cells implanted in BALB/c mouse assessed as increase in caspase-3 cleavage by immunohistochemistry method; assay type: functional, cell-based
4T1 [32] = test: Induction of cell cycle arrest in mouse 4T1 cells assessed as G2/M phase accumulation at 2 uM incubated for 24 hrs by PI staining based flow cytometry analysis (reference value: 38.51 %); assay type: functional
[33] = target: Signal transducer and activator of transcription 3 (Homo sapiens) (UniProt P40763); test: Inhibition of STAT3 in human MDA-MB-231 cells assessed as reduction in STAT-3 phosphorylation incubated for 8 hrs by Western blot analysis; assay type: cell-based; conditions: dose 2.5-20 µM
[34] = Toxicity in C57BL/6 mouse assessed death of organism at 300 mg/kg, ip observed for 24 hrs; assay type: organism-based; conditions: in vivo
[35] = Toxicity in C57BL/6 mouse assessed death of organism at 50 mg/kg, po observed for 20 days; assay type: organism-based; conditions: in vivo, 480 h, time 20 day

Compound: COc1ccc(-c2coc3cc(OCCCCCCCC(=O)NO)cc(O)c3c2=O)cc1
IC50 [1]: > 10 µM

Compound: O=c1cc(-c2ccc(O)cc2)oc2cc(O)cc(O)c12 [APIGENIN]
IC50 [1]: > 10 µM
Activity (MDA-MB-231 [2]): 0.02%
Activity (MDA-MB-231 [3]): 8.28%
Activity (4T1 [4]): 3.22%
Activity (4T1 [5]): 3.22%
Activity (4T1 [6]): 4.45%
Activity (MDA-MB-231 [7]): 1.59%
viability at 10 µM (4T1 [8]): 89.1%
viability at 10 µM (MDA-MB-231 [9]): 90.1%

Compound: COc1ccc(-c2coc3cc(OCCCCCCC(=O)NO)ccc3c2=O)cc1
IC50 [1]: > 10 µM

Compound: O=C(COc1cc(O)c2c(=O)cc(-c3ccccc3)oc2c1)NO
IC50 [1]: > 10 µM

Compound: COc1ccc(-c2cc(=O)c3c(O)cc(OCCCCCC(=O)NO)cc3o2)cc1
IC50 [1]: 4530 µM

Compound: O=C(CCCOc1cc(O)c2c(=O)cc(-c3ccccc3)oc2c1)NO
IC50 [1]: > 10 µM

Compound: COc1ccc(-c2coc3cc(OCCCCCCCC(=O)NO)ccc3c2=O)cc1
IC50 [1]: > 10 µM

Compound: COc1ccc(-c2coc3cc(OCCCCCC(=O)NO)cc(O)c3c2=O)cc1
IC50 [1]: > 10 µM

Compound: O=C(CCCCCCC(=O)Nc1ccccc1)NO [VORINOSTAT]
Activity (MDA-MB-231 [10]): 72.99%
Activity (MDA-MB-231 [11]): 0.356%
Activity (4T1 [12]): 2.08%
Activity [13]: Non-Toxic
Activity [14]: Non-Toxic
Activity (MDA-MB-231 [15]): Active
Activity (4T1 [16]): 13.4%
IC50 (T47D): 2.24 µM
Activity (MDA-MB-231 [17]): 8.32%
Activity (MDA-MB-231 [18]): 18.69%
viability at 5 µM (MDA-MB-231 [19]): 53.8%
Activity [20]: Non-Toxic
Activity [21]: Toxic
Activity (4T1 [22]): 23.63%
inhibition [23]: inactive
Activity [24]: Non-Toxic
Activity [25]: Toxic
Activity (MDA-MB-231 [26]): 25.8%
Activity (MDA-MB-231 [27]): 20.1%
IC50 (HepG2): 2.27 µM
Activity (4T1 [28]): 53.69%
viability at 5 µM (4T1 [29]): 35.6%
Activity (4T1 [30]): 48.9%
Activity (4T1 [31]): Active
Activity (4T1 [32]): 22.68%

Compound: COc1ccc(-c2coc3cc(OCCCCCCC(=O)NO)cc(O)c3c2=O)cc1
IC50 [1]: > 10 µM

Compound: COc1ccc(-c2cc(=O)c3c(O)cc(OCCCCCCCC(=O)NO)cc3o2)cc1
IC50 [1]: > 10 µM

Compound: O=C(CCCCCOc1cc(O)c2c(=O)cc(-c3ccc(OCCN4CCCC4)cc3)oc2c1)NO
IC50 [1]: > 10 µM

Compound: COC(=O)CCCCCOc1cc(O)c2c(=O)cc(-c3ccc(OCCN(C)C)cc3)oc2c1
inhibition [23]: Active

Compound: CN(C)CCCOc1ccc(-c2cc(=O)c3c(O)cc(OCCCCCC(=O)NO)cc3o2)cc1.Cl
inhibition [33]: Dose-dependent effect
IC50 [1]: 0.065 µM
Activity [34]: Toxic
Activity [35]: Toxic

Further compounds by falling IC50 [1], results first:

IC50 [1]: 5.25 µM
Compound: COc1ccc(-c2cc(=O)c3c(O)cc(OCCCCCCC(=O)NO)cc3o2)cc1

IC50 [1]: 3.33 µM
Compound: O=C(CCCCOc1cc(O)c2c(=O)cc(-c3ccccc3)oc2c1)NO

IC50 [1]: 1.68 µM
Compound: CN(C)CCOc1ccc(-c2cc(=O)c3c(O)cc(OCCCCCCCC(=O)NO)cc3o2)cc1

IC50 [1]: 0.93 µM
Compound: O=C(CCCCCCOc1cc(O)c2c(=O)cc(-c3ccc(O)cc3)oc2c1)NO

IC50 [1]: 0.732 µM
Compound: CN(C)CCOc1ccc(-c2cc(=O)c3c(O)cc(OCCCCCCC(=O)NO)cc3o2)cc1

IC50 [1]: 0.71 µM
Compound: COc1ccc(-c2coc3cc(OCCCCCC(=O)NO)ccc3c2=O)cc1

IC50 [1]: 0.615 µM
Compound: O=C(CCCCCCCOc1cc(O)c2c(=O)cc(-c3ccc(O)cc3)oc2c1)NO

IC50 [1]: 0.59 µM
Compound: O=C(CCCCCOc1cc(O)c2c(=O)cc(-c3ccc(OCCN4CCOCC4)cc3)oc2c1)NO

IC50 [1]: 0.402 µM
Compound: O=C(CCCCCCCOc1cc(O)c2c(=O)cc(-c3ccccc3)oc2c1)NO

IC50 [1]: 0.297 µM
Compound: O=C(CCCCCOc1cc(O)c2c(=O)cc(-c3ccc(O)cc3)oc2c1)NO

IC50 [1]: 0.225 µM
Compound: CN1CCN(CCOc2ccc(-c3cc(=O)c4c(O)cc(OCCCCCC(=O)NO)cc4o3)cc2)CC1

IC50 [1]: 0.133 µM
Compound: O=C(CCCCCOc1cc(O)c2c(=O)cc(-c3ccc(OCCN4CCCCC4)cc3)oc2c1)NO

IC50 [1]: 0.088 µM
Compound: O=C(CCCCCCOc1cc(O)c2c(=O)cc(-c3ccccc3)oc2c1)NO

IC50 [1]: 0.053 µM
Compound: CN(C)CCCOc1ccc(-c2cc(=O)c3c(O)cc(OCCCCCCCC(=O)NO)cc3o2)cc1

IC50 [1]: 0.053 µM
Compound: O=C(CCCCCOc1cc(O)c2c(=O)cc(-c3ccccc3)oc2c1)NO

IC50 [1]: 0.025 µM
Compound: CN(C)CCCOc1ccc(-c2cc(=O)c3c(O)cc(OCCCCCCC(=O)NO)cc3o2)cc1

Reference: ChEMBL document CHEMBL4765432, “Design and synthesis of novel Flavone-based histone deacetylase inhibitors antagonizing activation of STAT3 in breast cancer” (Eur J Med Chem, 2020)
